Each structure is given as a SMILES string.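 Compound exposure: 48 hours, 5 concentrations, 96-well plates. Here, GI50 denotes the concentration required for 50% inhibition of growth. TGI is the concentration that stops growth completely.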 Bounds are passed on as bounds.

Among the test systems are IGROV1 ovarian; OVCAR-8 ovarian; EKVX NSCLC; HOP-92 NSCLC; HCC-2998 colon; SF-268 CNS; 786-0 renal; MDA-MB-231 breast; HL-60(TB) leukemia; SR leukemia.
Holding throughout (experiment): inhibition of tumour cell growth, NCI panel, 48 h

For the molecule `CC1(C)CCc2c(c(N=Nc3ccccc3F)c3ccccc3c2O)O1`, the GI50 is 32.4 µM in the assay on IGROV1 ovarian; 23.3 µM in the assay on OVCAR-8 ovarian; more than 100 µM with EKVX NSCLC; 92.6 µM in the assay with HOP-92 NSCLC; 22.6 µM with HCC-2998 colon; 76.3 µM in the assay with SF-268 CNS. For the same molecule, the GI50 is 26.1 µM in the assay with 786-0 renal, 17.6 µM with MDA-MB-231 breast and more than 100 µM with HL-60(TB) leukemia. Besides, the TGI was more than 100 µM in the assay with IGROV1 ovarian; 51.4 µM with OVCAR-8 ovarian; more than 100 µM in the assay on EKVX NSCLC; more than 100 µM with HOP-92 NSCLC; more than 100 µM with HCC-2998 colon; more than 100 µM with SF-268 CNS. The TGI in the assay on 786-0 renal was 60.3 µM; with MDA-MB-231 breast, 37.9 µM; with HL-60(TB) leukemia, more than 100 µM.

On to `COc1cc2c(cc1O)c(=O)n(CCN(C)C)c1c3cc4c(cc3ncc21)OCO4`, for which the GI50 was 0.0417 µM in the assay on IGROV1 ovarian; less than 0.0116 µM with OVCAR-8 ovarian; 0.239 µM with EKVX NSCLC; 0.0325 µM in the assay with HOP-92 NSCLC; 0.109 µM in the assay with HCC-2998 colon; less than 0.01 µM with SF-268 CNS. Besides, the GI50 is less than 0.01 µM with 786-0 renal, 0.0616 µM with MDA-MB-231 breast and less than 0.01 µM in the assay with HL-60(TB) leukemia. Also, the TGI came out at 8.2 µM in the assay on IGROV1 ovarian; 2.52 µM in the assay with OVCAR-8 ovarian; 3.66 µM in the assay with EKVX NSCLC; 0.455 µM with HOP-92 NSCLC; 0.398 µM in the assay with HCC-2998 colon; 19.9 µM in the assay with SF-268 CNS. The TGI with 786-0 renal was 0.0291 µM; with MDA-MB-231 breast, 5.58 µM; with HL-60(TB) leukemia it was 0.104 µM.

As for `COc1ccc(CNCCCN2C(=O)c3ccc4c5c(ccc(c35)C2=O)C(=O)N(CCCNCc2ccc(OC)c(OC)c2OC)C4=O)c(OC)c1OC`, the GI50 in the assay on SR leukemia is 0.165 µM; in the assay with IGROV1 ovarian, 0.0795 µM; in the assay on OVCAR-8 ovarian it was 0.0914 µM; with EKVX NSCLC it was 0.0929 µM; with HOP-92 NSCLC, 0.108 µM; with HCC-2998 colon, 0.0957 µM. In addition, the results for the GI50 in the assay with SF-268 CNS, with 786-0 renal and in the assay with MDA-MB-231 breast were 0.117 µM, 0.333 µM and 0.125 µM, respectively. The TGI in the assay with SR leukemia stood at 0.644 µM; in the assay with IGROV1 ovarian, 0.189 µM; with OVCAR-8 ovarian, 0.242 µM; in the assay on EKVX NSCLC it was 0.176 µM; with HOP-92 NSCLC, 0.328 µM; with HCC-2998 colon it was 0.187 µM. Moreover, the TGI in the assay with SF-268 CNS was found to be 0.353 µM; in the assay with 786-0 renal it was 1.02 µM; in the assay on MDA-MB-231 breast it was 0.398 µM.

Turning to `OCCN(CCO)c1nc(N2CCCCC2)c2nc(N(CCO)CCO)nc(N3CCCCC3)c2n1`, the TGI with SR leukemia was 22.2 µM; in the assay with IGROV1 ovarian, more than 100 µM; in the assay on OVCAR-8 ovarian, more than 100 µM; in the assay on EKVX NSCLC, more than 100 µM; in the assay with HOP-92 NSCLC it was 36.4 µM; with HCC-2998 colon, 36.4 µM. The TGI in the assay on 786-0 renal is more than 100 µM; in the assay with MDA-MB-231 breast, more than 100 µM; with HL-60(TB) leukemia, 36.5 µM.

Take `C#CCOC(=O)/C=C/C(=O)Oc1ccc2c(C)cc(=O)oc2c1`: the GI50 was more than 100 µM in the assay on SR leukemia; more than 100 µM with IGROV1 ovarian; more than 100 µM in the assay on OVCAR-8 ovarian; more than 100 µM in the assay on EKVX NSCLC; 40.8 µM with HCC-2998 colon; more than 100 µM in the assay with SF-268 CNS. For the same molecule, the GI50 in the assay on 786-0 renal, in the assay on MDA-MB-231 breast and in the assay with HL-60(TB) leukemia was more than 100 µM each time. The TGI in the assay on SR leukemia, in the assay on IGROV1 ovarian, in the assay with OVCAR-8 ovarian, in the assay on EKVX NSCLC, with HCC-2998 colon and in the assay on SF-268 CNS was more than 100 µM in each case. Further, the TGI in the assay with 786-0 renal, with MDA-MB-231 breast and in the assay on HL-60(TB) leukemia was more than 100 µM in each case.

For the molecule `Cc1ccc2[nH]c(C(=O)NN3C(=O)C(C)SC34CCC(C)CC4)c(-c3ccccc3)c2c1` (stereo not given), the GI50 in the assay with IGROV1 ovarian is 13.6 µM; in the assay with OVCAR-8 ovarian it was 21.2 µM; in the assay with EKVX NSCLC, 19.6 µM; in the assay with HOP-92 NSCLC it was 16.7 µM; in the assay on HCC-2998 colon, 16.6 µM; with SF-268 CNS it was 14.9 µM. In addition, the GI50 in the assay on 786-0 renal was 19 µM; in the assay with MDA-MB-231 breast, 15.4 µM. Further, the TGI with IGROV1 ovarian turned out to be 36.4 µM; in the assay with OVCAR-8 ovarian, 53.2 µM; with EKVX NSCLC it was 56.1 µM; in the assay on HOP-92 NSCLC, 36 µM; in the assay with HCC-2998 colon it was 31.7 µM; in the assay on SF-268 CNS it was 35.5 µM. The TGI is 52.6 µM with 786-0 renal and 31.6 µM with MDA-MB-231 breast.

As for `O=c1cc(-c2ccccc2)oc2c1ccc1ccccc12`, the GI50 in the assay with IGROV1 ovarian was 14.1 µM; in the assay with OVCAR-8 ovarian, 26 µM; with HOP-92 NSCLC, 9.25 µM; in the assay on HCC-2998 colon, 56.7 µM; in the assay with SF-268 CNS, 37.3 µM; in the assay on 786-0 renal, 27.9 µM. For the same molecule, the GI50 in the assay on MDA-MB-231 breast was 12.5 µM; in the assay on HL-60(TB) leukemia it was 23.9 µM. For the same molecule, the TGI is 55.8 µM in the assay on IGROV1 ovarian; more than 100 µM in the assay on OVCAR-8 ovarian; 45.5 µM in the assay with HOP-92 NSCLC; more than 100 µM with HCC-2998 colon; more than 100 µM in the assay with SF-268 CNS; more than 100 µM in the assay on 786-0 renal. Besides, the TGI in the assay with MDA-MB-231 breast turned out to be 67.9 µM; in the assay on HL-60(TB) leukemia, 56.8 µM.

For `O=S(=O)(O)n1ccnc1` (tested in a mixture with another compound), the TGI in the assay on SR leukemia, with IGROV1 ovarian, in the assay on OVCAR-8 ovarian, with EKVX NSCLC, with HOP-92 NSCLC and in the assay with SF-268 CNS was more than 100 µM each time. The TGI with 786-0 renal, in the assay on MDA-MB-231 breast and in the assay with HL-60(TB) leukemia was more than 100 µM each time.

As to `CN(/N=C/c1ccccc1O)c1ccc2ccccc2n1`, the TGI was 36.8 µM in the assay with SR leukemia; 42.5 µM in the assay with IGROV1 ovarian; more than 100 µM in the assay on OVCAR-8 ovarian; 54.9 µM in the assay on EKVX NSCLC; more than 100 µM in the assay on HOP-92 NSCLC; 53.8 µM with SF-268 CNS. Besides, the TGI in the assay on 786-0 renal was 31.5 µM; with MDA-MB-231 breast it was more than 100 µM; in the assay on HL-60(TB) leukemia it was more than 100 µM.

Regarding `CCN(CC)CCCNc1n[n+]([O-])c2ccccc2[n+]1[O-]`, the TGI in the assay on SR leukemia is 76.2 µM; in the assay on IGROV1 ovarian, 24.2 µM; with OVCAR-8 ovarian it was 29.3 µM; in the assay with HOP-92 NSCLC, more than 100 µM; in the assay on HCC-2998 colon, 15.7 µM; with SF-268 CNS, more than 100 µM. For the same molecule, the TGI with 786-0 renal was determined as 33.4 µM; with MDA-MB-231 breast, 31.4 µM; in the assay with HL-60(TB) leukemia, 19.7 µM.

The record behind these values is PubChem BioAssay (NCI).
